Laboratory results from paper PMC9221509, “Discovery of a Novel Antimicrobial Peptide, Temporin-PKE, from the Skin Secretion of Pelophylax kl. esculentus, and Evaluation of Its Structure-Activity Relationships” (Biomolecules, 2022).
Like-named read-outs stand apart in the source and are kept apart here. No end group written: not given here.

What was measured:
[1] = test system: C. albicans (ATCC CRM 10231); test: organism not typed; type: cell-based, Candida albicans
Procedure: (§1) The antimicrobial activities of peptides were evaluated against the Gram-positive bacteria, S. aureus (ATCC 6538), methicillin-resistant Staphylococcus aureus (MRSA) (NCTC 12493), Enterococcus faecalis (E. faecalis) (NCTC 12697); the Gram-negative bacteria, E. coli (ATCC CRM 8739), Klebsiella pneumoniae (K. pneumoniae) (ATCC 43816), Pseudomonas aeruginosa (P. aeruginosa) (ATCC CRM 9027); and the yeast, Candida albicans (C. albicans) (ATCC CRM 10231). Clinical isolates of MRSA (B042 V2E1 A), E. coli (ATCC BAA-2340), K. pneumoniae (ATCC BAA-1705), and P. aeruginosa (B004 V2S2 B) were also used to determine their antimicrobial activities. The suspension of microorganisms in the logarithmic growth phase with a specific final density (Gram-negative and Gram-positive bacteria: 5 × 10^5 CFU/mL; yeast: 1 × 10^6 CFU/mL) was incubated with different peptide concentrations from 1 µM to 512 µM at 37 °C for 24 h. PBS was used as the negative control, and norfloxacin and amphotericin B were selected as the positive control for bacteria and yeast, respectively. Since the Norfloxacin had weak activities against P. aeruginosa (B004 V2S2 B) and K. pneumoniae (ATCC BAA 1705), gentamicin was used as the positive control for these two bacterial strains. The absorbance of each well was obtained using a microplate reader (EL808, Biolise BioTek, Winooski, VT, USA) set at 550 nm wavelength. The MIC value was the lowest concentration of a peptide that inhibits visible bacterial growth. Once the MIC values were determined, an aliquot from the bacterial culture exposed to the peptide at or above its MIC value was inoculated on a Mueller Hinton agar (MHA) and was incubated at 37 for 18 h. The MBC value was the lowest concentration of a peptide that kills 99.9% of bacteria.

[2] = test system: E. faecalis (NCTC 12697); test: microbe, parasite or virus in culture; type: cell-based, Enterococcus faecalis
Procedure: as §1

[3] = test system: E. coli (ATCC BAA-2340); test: microbe, parasite or virus in culture; type: cell-based, Escherichia coli
Procedure: as §1

[4] = test system: E. coli (ATCC CRM 8739); test: microbe, parasite or virus in culture; type: cell-based, Escherichia coli
Procedure: as §1

[5] = test system: horse red blood cells; type: cell-based
Procedure: As a previous study described in detail, the haemolysis activity assays of peptides were conducted on defibrinated horse blood (TCS Biosciences Ltd., Buckingham, UK) with an erythrocyte suspension concentration of 2% (v/v). The 120 μL of peptide solution in a gradient concentration ranging from 1µM to 512 µM was mixed with the same volume of 2% horse red blood cell suspension, and the complex was incubated at 37 °C for 2 h. PBS and 0.1% Triton X-100 were chosen as the negative and positive control, respectively. After centrifugation at 900× g for 5 min, the absorbance of the supernatant was analysed using a microplate reader (EL808, Biolise BioTek, Winooski, VT, USA) set to a wavelength of 570 nm. The equation to calculate the haemolysis of the peptides is shown below: Haemolysis (%)=A−An/Ap−An×100% where A represents the absorbance of each treatment group, An represents the average absorbance of the negative control group, and Ap represents the average absorbance of the positive control group.

[6] = test system: S. aureus (ATCC 6538) biofilm; type: cell-based, Staphylococcus aureus; conditions: ATCC 6538, 24 h
Procedure: (§2) The anti-biofilm activities of the peptides against S. aureus (ATCC 6538), MRSA (NCTC 12493), E. faecalis (NCTC 12697), E. coli (ATCC CRM 8739), K. pneumoniae (ATCC 43816), and P. aeruginosa (ATCC CRM 9027), were evaluated. For the MBIC assay, 99 µL of bacterial suspension (5 × 10^5 CFU/mL) was mixed with 1 µL of serial dilutions (from 100 µM to 51,200 µM) of temporin-PKE and its analogues in a 96-well plate, and the plate was incubated in a moist shaking incubator at a speed of 200 rpm at 37 °C for 24 h. For the MBEC assay, 100 µL of bacterial suspension (5 × 10^5 CFU/mL) in each well was seeded in a new 96-well plate, and the plate was put into the same shaking incubator for 24 h incubation to allow biofilm formation on the well. After biofilm formation, the biofilm in the plate was washed with PBS twice. The PBS was aspirated between washes to remove planktonic bacterial cells. The washed biofilm in each well was treated with 100 µL of serial dilutions (from 1 µM to 512 µM) of the test peptides. Then, the plate was incubated in the same shaking incubator for another 24 h. After being washed by PBS twice and fixed with methanol, the biofilm in each well was incubated with 100 µL of 0.1% crystal violet for 30 min, and the stained biofilm was dissolved in 100 µL of glacial acidic acid after drying. The solutions were transferred to a new microplate, and the absorbance of each well was measured using a microplate reader (EL808, Biolise BioTek, Winooski, VT, USA) set to 595 nm wavelength. The MBIC was the minimum concentration of the peptide showing no biofilm formation. The MBEC is the lowest concentration of the peptide capable of eradicating the mature biofilms, which had no biofilm in the well.

[7] = test system: E. faecalis (NCTC 12697) biofilm; type: cell-based, Enterococcus faecalis; conditions: NCTC 12697, 24 h
Procedure: as §2

[8] = test system: MRSA (NCTC 12493); type: cell-based, methicillin-resistant Staphylococcus aureus; conditions: NCTC 12493, 24 h
Procedure: as §1
According to the procedures in a previous article, the analysis of the sensitivity of the peptides was determined by measuring MIC values in the presence of different types of salts and 10% fetal bovine serum. MRSA (NCTC 12493) and K. pneumoniae (ATCC 43816) were selected as the subjects of these assays. Various salts at different concentrations, including 150 mM NaCl, 4.5 mM KCl, 6 μM NH4Cl, 1 mM MgCl2, […], […], and 10% serum (Gibco, Auckland, New Zealand), were added to the MHB medium for the examination of the MIC values which were determined as described in Section 2.7.

FLPLIIGALSSKLPKIF-NH2 [Temporin-PKE-K12]
MBC ([1]; ATCC CRM 10231, 18 h, read-out: MBC): >512 µM
MIC ([1]; ATCC CRM 10231, 24 h, read-out: MIC): >512 µM
MBC ([2]; NCTC 12697, 18 h): 8 µM
MIC ([2]; NCTC 12697, 24 h): 8 µM
MBC ([3]; ATCC BAA-2340, 18 h): 16 µM
MIC ([3]; ATCC BAA-2340, 24 h): 16 µM
MBC ([4]; ATCC CRM 8739, 18 h): 8 µM
MIC ([4]; ATCC CRM 8739, 24 h): 8 µM
HC50 [5]: 122.7 µM
HC50 ([5]; red cells of horse, 2 h): 122.7 µM
MBIC [6]: 4 µM
MBIC [7]: 64 µM
MIC against MRSA in the presence of 4 µM FeCl3 [8]: 8 µM
MIC against MRSA in the presence of 6 µM NH4Cl [8]: 8 µM
MIC against MRSA in the presence of 8 µM ZnCl2 [8]: 32 µM
MIC against MRSA in the presence of 1 mM MgCl2 [8]: 16 µM
MIC against MRSA in the presence of 2 mM CaCl2 [8]: 16 µM
MIC against MRSA in the presence of 4.5 mM KCl [8]: 32 µM
MIC against MRSA in the presence of 150 mM NaCl [8]: 32 µM
MIC against MRSA in the presence of 10% FBS [8]: 32 µM
MIC against MRSA, Negative [8]: 4 µM
